In test [1] the target is T1, His-DNMT1 (182 kDa, human) (Homo sapiens, UniProt P26358).
T1 construct: His; made in house
In words: DNMT1 assay ([methyl-3H] SAM Flashplate). Type of test: biochemical. Conditions: for inhibition at 32 µM: compound at 32 μM, read-out: DNMT1 (% of inhibition) 32 μM; for inhibition at 100 µM: compound at 100 μM, read-out: DNMT1 (% of inhibition) 100 μM. On the procedure:
His-DNMT1 (182 kDa, human) was cloned, expressed and purified as described in Halby et al. (ChemBioChem 2012, 13, 157-65). The reaction was performed in a 10 μL total reaction volume in low volume NBS™ 384-well microplates (Corning), containing the tested compound (up to 1% DMSO), 1 μM of a SAM/[methyl-^3H] SAM (3 TBq/mmol, PerkinElmer) mix in a ratio of 3-to-1 (isotopic dilution 1*:3), 0.3 μM of biotinylated hemimethylated DNA duplex (5′-GATmCGCmCGATGmCGmCGAATmCGmCGAT mCGATGmCGAT-3′ and BIOT-5′-[…] ATC-3′), and 90 nM of DNMT1 in methylation buffer (20 mM HEPES pH 7.2, 1 mM EDTA, 50 mM KCl, 25 μg/mL BSA). The reaction was incubated at 37° C. for 2 hours. 8 μL are then transferred into a streptavidin 96-well scintillant coated Flashplate™ (PerkinElmer) containing 190 μL of 20 μM SAH in 50 mM Tris-HCl pH 7.4. The Flashplate™ was agitated at room temperature for 1 hour, washed three times with 200 μL of 0.05% Tween®-20 in 50 mM Tris-HCl pH 7.4, and read in 200 μL of 50 mM Tris-HCl pH 7.4 on TopCount NXT (PerkinElmer).

Test [2] relates to WM266.4 cells (human melanoma cells). In words: Anti-proliferative activity on WM266.4 cells (ATPlite one step). Type of test: cell-based. To be noted: WM 266-4, 72 h incubation, read-out: EC50 (μM) WN226.4. As to the method:
(§1) The antiproliferative activity of compounds was measured in vitro using the ATP quantification method “ATPlite one step assay” (Perkin Elmer ref 6016739) according to the manufacturer conditions.
(§2) Briefly, WM266.4 cells (human melanoma cells) (5×10^4 cells per ml in RPMI1640 medium, 10% FBS, 2 mM glutamine, 50 U/mL penicillin/streptomycin and 1.25 μg/mL fungizone), PANC1 cells (human pancreatic carcinoma cells) (2×10^4 cells per ml in DMEM medium, 10% FBS, 2 mM glutamine, 50 U/mL penicillin/streptomycin and 1.25 μg/mL fungizone), and U87MG cells (human neuronal gliablastoma-astrocytoma-cells) (3×10^4 cells per ml in MEM medium, 10% FBS, 2 mM glutamine, 50 U/mL penicillin/streptomycin and 1.25 μg/mL fungizone) were seeded in 96-well plates, incubated for 24 h and treated with 8 increasing concentrations of test compounds diluted in cells respective mediums, or vehicle in triplicate.
(§3) Cells were then incubated for 72 h at 37° C. in humidified 5% CO2 atmosphere.
(§4) At the end of the experiment, cell viability was evaluated by determining the level of ATP released by viable cells.
(§5) EC50 values were determined with curve fitting analysis method (non linear regression model with a sigmoid dose response, variable Hill slope coefficient) provided by the Prism Software (GraphPad). […]

The subject of test [3] is KG-1 human leukemia cells. The experiment in a line: Anti-proliferative activity on KG-1 cells (ATPLite). Format: cell-based. Conditions: KG-1, 96 h, treatment days 1-3, viability day 4, mean of at least two experiments, 95% confidence interval in brackets. As to the method: (§6) KG-1 and Karpas299 human leukemia cells were obtained from the ATCC (USA) and cultivated in RPMI 1640 medium (with HEPES and Glutamine, BE12-115F, Lonza, France) supplemented with, respectively, 20% and 15% foetal calf serum (Lonza, France), at 37° C. and under 5% CO2. To measure the anti-proliferative properties of tested molecules, 2×10^4 cells are seeded at day 0 in a 96 wells plate. The compounds to be tested, stored at −20° C. as 10^−2 M stock solution in 100% DMSO, are freshly diluted on day 1 in RPMI 1640 medium, before adding a dose range of 3.2 nM to 10 μM to the cells. This treatment is repeated on day 2 and 3, and on day 4 cell viability is assessed using the ATPLite kit from Perkin (ATPlite 1 Step Luminescence Assay System, ref 3016739), following the provider instructions. The raw data are analyzed with GraphPad Prism software (v4.03) to generate EC50 values corresponding to the compound concentrations giving 50% reduction in cell viability. The values presented are the mean results of at least two independent experiments.

The subject of test [4] is U87MG cells (human neuronal gliablastoma-astrocytoma-cells). In words: Anti-proliferative activity on U87MG cells (ATPlite one step). Format: cell-based. To be noted: U-87 MG, 72 h incubation. On the procedure:
as §1, §2, §3, §4, §5

Test [5] has as its target T2, human C-terminal DNMT3A (a.a. 623-908) (Homo sapiens, UniProt Q9Y6K1).
T2 construct: The human C-terminal DNMT3A (a.a. 623-908); made in house
In words: DNMT3A assay (restriction-based fluorescence). Type of test: biochemical. Conditions: for inhibition at 10 µM: compound at 10 μM, read-out: DNMT3A (% of inhibition) 10 μM; for EC50: concentration range in triplicates; for inhibition at 32 µM: compound at 32 μM, read-out: DNMT3A (% of inhibition) 32 μM. The source says:
DNMT3A enzyme inhibition was adapted from the restriction-based fluorescence assay protocol described in Ceccaldi et al. (ChemBioChem 2011, 12, 1337-45). Briefly, a 5′-labelled biotin oligonucleotide is hybridized to its complementary strand labelled with 6-carboxyfluorescein at the 3′-end into a 384 well microplate (black Optiplates; Perkin Elmer) pre-coated with avidin. The duplex contains a unique CpG site overlapping with a restriction site of a methylation sensitive restriction enzyme. The human C-terminal DNMT3A (a.a. 623-908), produced as described in Gros et al. (Nucleic Acids Research 2013 Aug. 25), was added in each well (200 ng/well) and mixed with the chemical compounds at desired concentrations and freshly prepared AdoMet (20 μM final concentration) to start the reaction in a total volume of 50 μL. After 1 hour incubation at 37° C. each well were washed three times with PBS, Tween-20 0.05%, NaCl (500 mM) and three more times with PBST. Specific fluorescent signals were detected with the methylation-sensitive restriction enzyme HpyCH4IV (NEB) as described and measured on a Perkin Elmer Envision detector. The percentage of inhibition is reported. The formula used to calculate the percentage of inhibition is [(X−Y)/X]×100, where X is the signal determined in the absence of the inhibitor and Y is the signal obtained in the presence of the inhibitor. The concentration at which 50% of efficacy of inhibition is observed (EC50) was determined by analysis of a concentration range of the tested compound in triplicates. The non-linear regression fittings with sigmoidal dose-response (variable slope) were performed with GraphPad Prism 4.03 (GraphPad Software).

Test [6] has as its system Karpas299 human leukemia cells. The experiment in a line: Anti-proliferative activity on Karpas 299 cells (ATPLite). Format: cell-based. To be noted: KARPAS-299, 96 h, treatment days 1-3, viability day 4, mean of at least two experiments, 95% confidence interval in brackets. On the procedure:
as §6

Test [7] has as its system PANC1 cells (human pancreatic carcinoma cells). In words: Anti-proliferative activity on PANC1 cells (ATPlite one step). Type of test: cell-based. Conditions: PANC-1, 72 h incubation. On the procedure:
as §1, §2, §3, §4, §5

T1 sequence (P26358 whole entry): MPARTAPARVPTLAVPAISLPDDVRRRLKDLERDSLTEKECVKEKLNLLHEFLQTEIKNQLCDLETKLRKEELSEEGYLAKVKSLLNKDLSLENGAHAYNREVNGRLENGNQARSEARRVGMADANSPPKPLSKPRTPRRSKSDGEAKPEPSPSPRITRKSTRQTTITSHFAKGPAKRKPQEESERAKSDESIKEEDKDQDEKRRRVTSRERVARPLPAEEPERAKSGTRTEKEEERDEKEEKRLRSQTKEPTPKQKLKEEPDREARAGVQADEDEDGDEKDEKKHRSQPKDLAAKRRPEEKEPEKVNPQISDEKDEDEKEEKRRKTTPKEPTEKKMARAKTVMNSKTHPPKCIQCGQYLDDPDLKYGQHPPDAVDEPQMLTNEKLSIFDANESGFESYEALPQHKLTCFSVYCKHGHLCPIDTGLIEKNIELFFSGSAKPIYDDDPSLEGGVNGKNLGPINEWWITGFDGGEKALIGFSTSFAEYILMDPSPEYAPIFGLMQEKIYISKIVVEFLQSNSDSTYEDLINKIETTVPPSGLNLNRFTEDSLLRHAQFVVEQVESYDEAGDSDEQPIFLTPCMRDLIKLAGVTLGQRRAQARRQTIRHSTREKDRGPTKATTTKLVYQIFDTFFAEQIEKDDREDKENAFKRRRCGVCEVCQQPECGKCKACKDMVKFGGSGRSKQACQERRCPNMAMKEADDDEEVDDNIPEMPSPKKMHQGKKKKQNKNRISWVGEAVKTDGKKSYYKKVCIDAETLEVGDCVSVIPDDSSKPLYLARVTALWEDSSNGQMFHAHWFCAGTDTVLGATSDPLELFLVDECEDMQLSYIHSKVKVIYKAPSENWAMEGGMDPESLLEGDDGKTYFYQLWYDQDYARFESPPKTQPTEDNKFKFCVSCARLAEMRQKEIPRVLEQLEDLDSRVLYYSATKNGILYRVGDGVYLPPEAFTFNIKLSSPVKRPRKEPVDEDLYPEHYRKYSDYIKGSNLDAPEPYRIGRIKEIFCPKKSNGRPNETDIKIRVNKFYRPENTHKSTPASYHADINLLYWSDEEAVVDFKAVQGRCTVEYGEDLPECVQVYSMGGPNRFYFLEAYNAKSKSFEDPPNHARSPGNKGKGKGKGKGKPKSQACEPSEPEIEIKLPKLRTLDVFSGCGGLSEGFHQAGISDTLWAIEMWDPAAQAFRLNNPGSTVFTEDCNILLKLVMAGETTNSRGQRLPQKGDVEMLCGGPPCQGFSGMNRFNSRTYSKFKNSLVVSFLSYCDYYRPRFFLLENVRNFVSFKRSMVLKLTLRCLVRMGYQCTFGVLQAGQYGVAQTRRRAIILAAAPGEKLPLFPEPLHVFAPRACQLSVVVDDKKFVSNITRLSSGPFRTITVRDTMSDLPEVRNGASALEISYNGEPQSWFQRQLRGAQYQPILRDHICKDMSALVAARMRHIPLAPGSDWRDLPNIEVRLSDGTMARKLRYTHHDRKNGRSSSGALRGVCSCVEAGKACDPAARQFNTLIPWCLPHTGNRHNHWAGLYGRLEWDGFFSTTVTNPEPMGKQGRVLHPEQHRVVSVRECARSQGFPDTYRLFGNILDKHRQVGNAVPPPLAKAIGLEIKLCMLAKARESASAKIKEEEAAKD
T2 sequence (Q9Y6K1 627-912 limits assumed): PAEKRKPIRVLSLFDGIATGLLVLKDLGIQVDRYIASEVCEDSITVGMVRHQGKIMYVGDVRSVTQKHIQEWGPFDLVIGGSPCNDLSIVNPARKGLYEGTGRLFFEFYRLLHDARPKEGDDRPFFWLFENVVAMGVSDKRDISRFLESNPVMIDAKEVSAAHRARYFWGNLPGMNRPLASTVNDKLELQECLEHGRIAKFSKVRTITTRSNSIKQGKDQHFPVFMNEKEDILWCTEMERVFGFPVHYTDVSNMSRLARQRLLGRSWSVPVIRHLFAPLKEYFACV

As to `c1ccc(CCCNc2ncnc3cc(OCC4CCN(CCNc5ccnc6ccccc56)CC4)ccc23)cc1` [Compound G, 4-((3-phenylpropyl)amino)-7-((1-(2-(quinolin-4-ylamino)ethyl)piperidin-4-yl)methoxy)quinazoline], the inhibition at 32 µM in test [1] stood at 24.5%. Also, in test [1], the inhibition at 100 µM turned out to be 91.2%. For the same molecule, the EC50 in test [2] turned out to be 3.9 µM; in test [3], 0.5 µM; in test [4], 8.9 µM; in test [5], 2400 nM; in test [6], 1.8 µM; in test [7], 1.2 µM. Further, the inhibition at 10 µM in test [5] came out at 81%. The same molecule came in with an inhibition at 20 µM in test [5] (compound at 20 μM) of 97%.

As to `O=c1c2ccc(OCC3CCN(CCNc4ccnc5ccccc45)CC3)cc2ncn1CCNc1ccnc2ccccc12` [Compound M], in test [1], the inhibition at 32 µM is 100% and the inhibition at 100 µM came out at 100%. In test [3], a half-maximal effect (EC50) was put at 1.3 µM. In test [5], the inhibition at 10 µM was determined as 89%, the inhibition at 32 µM amounted to 91% and the EC50 stood at 1100 nM. Further, a half-maximal response in test [6] (EC50) required 0.7 µM.

`c1ccc(-c2ccc(CNc3ncnc4cc(OCC5CCN(CCNc6ccnc7ccccc67)CC5)ccc34)cc2)cc1` [Compound N, 4-([1,1′-biphenyl]-4-ylmethylamino)-7-((1-(2-(quinolin-4-ylamino)ethyl)piperidin-4-yl)methoxy)quinazoline]: in test [1], the inhibition at 32 µM came out at 24% and the inhibition at 100 µM turned out to be 69%. In test [3], the EC50 was found to be 0.4 µM. For the same molecule, in test [5], the inhibition at 10 µM worked out at 86% and the inhibition at 32 µM turned out to be 83%.

`O=c1c2ccc(OCC3CCN(CCNc4ccnc5ccccc45)CC3)cc2ncn1CCCc1ccccc1` [Compound R, 3-(3-phenylpropyl)-7-((1-(2-(quinolin-4-ylamino)ethyl)piperidin-4-yl)methoxy)quinazolinone]: in test [1], the inhibition at 32 µM came out at 45% and the inhibition at 100 µM amounted to 98.4%. In test [5], the inhibition at 10 µM was 65% and the inhibition at 32 µM was 99%.

Take `c1ccc(CCCNc2ncnc3cc(OCCNc4ccnc5ccccc45)ccc23)cc1` [Compound S, 4-(3-phenylpropylamino)-7-(2-(quinolin-4-ylamino)ethoxy)quinazoline]: the inhibition at 100 µM in test [1] is 90%. In addition, in test [5], the inhibition at 10 µM amounted to 52% and the inhibition at 32 µM is 95%.

Source of the values: patent US9951044B2, “Quinazoline derivatives and their use as DNA methyltransferase inhibitors” (PIERRE FABRE MEDICAMENT, priority 2013, dated 2018).
